Assay results as given in patent publication US12139508B2, “Steroid derivative regulators, method for preparing the same, and uses thereof” (JIANGSU HANSOH PHARMACEUTICAL GROUP CO., LTD., priority 2018, dated 2024).
Like-named read-outs stand apart in the source and are kept apart here.

What was measured:
forced-swimming mice = assay: In vivo pharmacodynamic test in the forced swimming model in mice; conditions: ICR mice; for Mean (immobility, %): 100*floating time/240 s; for Immobility time during the latter four minutes compared with that of the model group: forced swimming
Method: The antidepressant effect of the compound was evaluated by the forced swimming model in mice.
Male ICR mice (25-35 g) were adapted in the test environment for 3 days before the forced swimming test.
According to the test design, the mice were randomly grouped on the day before the test according to body weight, with 12 mice in each group. Before the test, the compounds of each example were administered intragastrically according to the Tmax thereof in the brain in mice pharmacokinetic test as follows: • 1) Model group (0.5% CMC-Na-1% Tween 80 solution, p.o., 10 mL/kg); • 2) Compounds of Example 2, Example 3, Example 5, Example 6, Example 9, Examples 59-63, Examples 71-73, Example 103, Example 135, Example 137, Example 145 and Example 146 (10 mg/kg, p.o., 10 mL/kg); Example 13 and Example 74 (5 mg/kg, p.o., 5 mL/kg).
When being administered, the compounds of each example were suspended in 0.5% CMC-Na+1% Tween 80 solution to the desired concentration.
0.5-1 hour after administration, ICR mice were placed in a forced swimming device (transparent glass drum (water depth 18 cm, water temperature 25-26° C.), one mouse per tank) and forced to swim for 6 minutes. The forced swimming device recorded the floating time of the ICR mice during the entire 6 minutes, and the data of the latter four minutes were used for data analysis. The mice were taken out immediately after the swimming test, wiped dry and put back in their original cages.
Note: The criterion for determining the immobility time is that the mouse stops struggling in water and floats, and there are only slight limb movements to keep the head floating on the water.
3.4 Data Analysis Floating time percentage=100*floating time/240 s.

[1] = Pharmacokinetic assay in Balb/c mice (plasma and brain tissue); type: in vivo; conditions: mouse, po, 5 mg/kg p.o., male Balb/c mice; for AUC(0-t): read-out: Area under curve AUC0-t; for AUC(0-inf): read-out: Area under curve AUC0-∞; for half-life: read-out: Half-life t1/2 (converted); for MRT: read-out: Mean residence time MRT; for Tmax: read-out: Peak time tmax; for Cmax: read-out: Plasma concentration Cmax
Outline: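 Compound levels in plasma and brain were measured by LC/MS/MS with an internal standard after protein precipitation with acetonitrile. Samples came from overnight-fasted male Balb/c mice given 5 mg/kg p.o., with cardiac blood drawn at 0–24 h. Pharmacokinetic parameters were then calculated.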

C[C@@]1(O)CC[C@H]2[C@H](CC[C@@H]3[C@@H]2CC[C@@]2(C)[C@H]3[C@@H]3C[C@@H]3[C@@H]2C(=O)Cn2cc(C#N)cn2)C1 [Example 2, 1-(2-((2R,4aS,4bR,6aS,7S,7aS,8aR,8bR,8cR,10aR)-2-hydroxy-2,6a-dimethyloctadecahydrocyclopropa[4,5]cyclopenta[1,2-a]phenanthren-7-yl)-2-oxoethyl)-1H-pyrazole-4-carbonitrile]
Mean (immobility, %) (forced-swimming mice; dose 10 mpk p.o.): 54.26%
AUC(0-t) ([1]; brain tissue): 840 ng·h/mL
AUC(0-inf) ([1]; brain tissue): 913 ng·h/mL
half-life ([1]; brain tissue): 170 min
MRT ([1]; brain tissue): 2.39 h
Tmax ([1]; brain tissue): 0.5 h
Cmax ([1]; brain tissue): 637 ng/mL
AUC(0-t) ([1]; plasma): 1360 ng·h/mL
AUC(0-inf) ([1]; plasma): 1370 ng·h/mL
half-life ([1]; plasma): 32.4 min
MRT ([1]; plasma): 1.21 h
Tmax ([1]; plasma): 0.5 h
Cmax ([1]; plasma): 1100 ng/mL

C[C@@]1(O)CC[C@H]2[C@H](CC[C@@H]3[C@@H]2CC[C@@]2(C)[C@H]3[C@@H]3C[C@@H]3[C@@H]2C(=O)Cn2ccc(C#N)n2)C1 [Example 3, 1-(2-((2R,4aS,4bR,6aS,7S,7aS,8aR,8bR,8cR,10aR)-2-hydroxy-2,6a-dimethyloctadecahydrocyclopropa[4,5]cyclopenta[1,2-a]phenanthren-7-yl)-2-oxoethyl)-1H-pyrazole-3-carbonitrile]
Mean (immobility, %) (forced-swimming mice; dose 10 mpk p.o.): 28.50%
Mean (immobility, s) (forced-swimming mice; dose 10 mpk p.o., latter four minutes of 6 min swim): 68.39 s
Immobility time during the latter four minutes compared with that of the model group (forced-swimming mice): significantly different
AUC(0-t) ([1]; brain tissue): 719 ng·h/mL
AUC(0-inf) ([1]; brain tissue): 722 ng·h/mL
half-life ([1]; brain tissue): 30 min
MRT ([1]; brain tissue): 1.1 h
Tmax ([1]; brain tissue): 0.5 h
Cmax ([1]; brain tissue): 690 ng/mL
AUC(0-t) ([1]; plasma): 570 ng·h/mL
AUC(0-inf) ([1]; plasma): 574 ng·h/mL
half-life ([1]; plasma): 30 min
MRT ([1]; plasma): 1.01 h
Tmax ([1]; plasma): 0.5 h
Cmax ([1]; plasma): 673 ng/mL

C[C@@]1(O)CC[C@H]2[C@H](CC[C@@H]3[C@@H]2CC[C@@]2(C)[C@H]3[C@@H]3C[C@@H]3[C@@H]2C(=O)Cn2cc(C(F)(F)F)cn2)C1 [Example 5, 1-((2R,4aS,4bR,6aS,7S,7aS,8aR,8bR,8cR,10aR)-2-Hydroxy-2,6a-dimethyloctadecahydrocyclopropa[4,5]cyclopenta[1,2-a]phenanthren-7-yl)-2-(4-(trifluoromethyl)-1H-pyrazol-1-yl)ethan-1-one]
Mean (immobility, %) (forced-swimming mice; dose 10 mpk p.o.): 59.93%
AUC(0-t) ([1]; brain tissue): 2300 ng·h/mL
AUC(0-inf) ([1]; brain tissue): 3070 ng·h/mL
half-life ([1]; brain tissue): 283 min
MRT ([1]; brain tissue): 5.53 h
Tmax ([1]; brain tissue): 0.5 h
Cmax ([1]; brain tissue): 1410 ng/mL
AUC(0-t) ([1]; plasma): 1240 ng·h/mL
AUC(0-inf) ([1]; plasma): 1250 ng·h/mL
half-life ([1]; plasma): 307 min
MRT ([1]; plasma): 4.8 h
Tmax ([1]; plasma): 0.5 h
Cmax ([1]; plasma): 461 ng/mL

C[C@@H]1C[C@H](C(=O)Cn2cc(C#N)cn2)[C@@]2(C)CC[C@H]3[C@@H](CC[C@@H]4C[C@](C)(O)CC[C@@H]43)[C@H]12 [Example 13, 1-(2-((3R,5R,8R,9R,10S,13S,14S,15R)-3-Hydroxy-3,13,15-trimethylhexadecahydro-1H-cyclopenta[a]phenanthren-17-yl)-2-oxoethyl)-1H-pyrazole-4-carbonitrile]
Mean (immobility, %) (forced-swimming mice; dose 5 mpk p.o.): 57.60%
AUC(0-t) ([1]; brain tissue): 4730 ng·h/mL
AUC(0-inf) ([1]; brain tissue): 4740 ng·h/mL
half-life ([1]; brain tissue): 150 min
MRT ([1]; brain tissue): 3.9 h
Tmax ([1]; brain tissue): 1 h
Cmax ([1]; brain tissue): 1060 ng/mL
AUC(0-t) ([1]; plasma): 5060 ng·h/mL
AUC(0-inf) ([1]; plasma): 5070 ng·h/mL
half-life ([1]; plasma): 150 min
MRT ([1]; plasma): 3.6 h
Tmax ([1]; plasma): 1 h
Cmax ([1]; plasma): 1210 ng/mL

C[C@@H]1C[C@H](C(=O)Cn2ccc(C#N)n2)[C@@]2(C)CC[C@H]3[C@@H](CC[C@@H]4C[C@](C)(O)CC[C@@H]43)[C@H]12 [Example 60, 1-(2-((3R,5R,8R,9R,10S,13S,14S,15R,17S)-3-Hydroxy-3,13,15-trimethylhexadecahydro-1H-cyclopenta[a]phenanthren-17-yl)-2-oxoethyl)-1H-pyrazole-3-carbonitrile]
Mean (immobility, %) (forced-swimming mice; dose 10 mpk p.o.): 35.30%
Immobility time during the latter four minutes compared with that of the model group (forced-swimming mice): significantly different
AUC(0-t) ([1]; brain tissue): 2400 ng·h/mL
AUC(0-inf) ([1]; brain tissue): 2500 ng·h/mL
half-life ([1]; brain tissue): 142 min
MRT ([1]; brain tissue): 2.35 h
Tmax ([1]; brain tissue): 1 h
Cmax ([1]; brain tissue): 998 ng/mL
AUC(0-t) ([1]; plasma): 1700 ng·h/mL
AUC(0-inf) ([1]; plasma): 1770 ng·h/mL
half-life ([1]; plasma): 98.4 min
MRT ([1]; plasma): 1.43 h
Tmax ([1]; plasma): 0.5 h
Cmax ([1]; plasma): 720 ng/mL

C[C@@]1(O)CC[C@H]2[C@H](CC[C@@H]3[C@@H]2CC[C@]2(C)C(C(=O)Cn4cc(C#N)cn4)C[C@@H](C4CC4)[C@@H]32)C1 (stereo partly drawn) [Example 71, 1-(2-((3R,5R,8R,9R,10S,13S,14S,15S)-15-Cyclopropyl-3-hydroxy-3,13-dimethylhexadecahydro-1H-cyclopenta[a]phenanthren-17-yl)-2-oxoethyl)-1H-pyrazole-4-carbonitrile]
Mean (immobility, %) (forced-swimming mice; dose 10 mpk p.o.): 55.92%
AUC(0-t) ([1]; brain tissue): 1130 ng·h/mL
AUC(0-inf) ([1]; brain tissue): 1280 ng·h/mL
half-life ([1]; brain tissue): 120 min
MRT ([1]; brain tissue): 3.66 h
Tmax ([1]; brain tissue): 1 h
Cmax ([1]; brain tissue): 383 ng/mL
AUC(0-t) ([1]; plasma): 1580 ng·h/mL
AUC(0-inf) ([1]; plasma): 1760 ng·h/mL
half-life ([1]; plasma): 122 min
MRT ([1]; plasma): 3.5 h
Tmax ([1]; plasma): 1 h
Cmax ([1]; plasma): 508 ng/mL

CC[C@@H]1C[C@H](C(=O)Cn2ccc(C#N)n2)[C@@]2(C)CC[C@H]3[C@@H](CC[C@@H]4C[C@](C)(O)CC[C@@H]43)[C@H]12 [Example 137, 1-(2-((3R,5R,8R,9R,10S,13S,14S,15R,17S)-15-Ethyl-3-hydroxy-3,13-dimethylhexadecahydro-1H-cyclopenta[a]phenanthren-17-yl)-2-oxoethyl)-1H-pyrazole-3-carbonitrile]
Mean (immobility, %) (forced-swimming mice; dose 10 mpk p.o.): 36.92%
Immobility time during the latter four minutes compared with that of the model group (forced-swimming mice): significantly different
AUC(0-t) ([1]; brain tissue): 2130 ng·h/mL
AUC(0-inf) ([1]; brain tissue): 3160 ng·h/mL
half-life ([1]; brain tissue): 361 min
MRT ([1]; brain tissue): 7.58 h
Tmax ([1]; brain tissue): 1 h
Cmax ([1]; brain tissue): 613 ng/mL
AUC(0-t) ([1]; plasma): 2780 ng·h/mL
AUC(0-inf) ([1]; plasma): 3790 ng·h/mL
half-life ([1]; plasma): 231 min
MRT ([1]; plasma): 5.88 h
Tmax ([1]; plasma): 1 h
Cmax ([1]; plasma): 763 ng/mL

C[C@@]1(O)CC[C@H]2[C@H](CC[C@@H]3[C@@H]2CC[C@@]2(C)[C@H]3[C@H](C3CC3)C[C@@H]2C(=O)Cn2ccnn2)C1 [Example 145, 1-((3R,5R,8R,9R,10S,13S,14S,15S,17S)-15-Cyclopropyl-3-hydroxy-3,13-dimethylhexadecahydro-1H-cyclopenta[a]phenanthren-17-yl)-2-(1H-1,2,3-triazol-1-yl)ethan-1-one]
Mean (immobility, %) (forced-swimming mice; dose 5 mpk p.o.): 30.72%
AUC(0-t) ([1]; brain tissue): 4820 ng·h/mL
AUC(0-inf) ([1]; brain tissue): 5270 ng·h/mL
half-life ([1]; brain tissue): 125 min
MRT ([1]; brain tissue): 3.4 h
Tmax ([1]; brain tissue): 1 h
Cmax ([1]; brain tissue): 1480 ng/mL
AUC(0-t) ([1]; plasma): 13400 ng·h/mL
AUC(0-inf) ([1]; plasma): 13400 ng·h/mL
half-life ([1]; plasma): 105 min
MRT ([1]; plasma): 3.47 h
Tmax ([1]; plasma): 1 h
Cmax ([1]; plasma): 2990 ng/mL

C[C@@]1(O)CC[C@H]2[C@H](CC[C@@H]3[C@@H]2CC[C@@]2(C)[C@H]3[C@H](C3CC3)C[C@@H]2C(=O)Cn2ncnn2)C1 [Example 146, 1-((3R,5R,8R,9R,10S,13S,14S,15S,17S)-15-Cyclopropyl-3-hydroxy-3,13-dimethylhexadecahydro-1H-cyclopenta[a]phenanthren-17-yl)-2-(2H-tetrazol-2-yl)ethan-1-one]
Mean (immobility, %) (forced-swimming mice; dose 5 mpk p.o.): 33.54%
Immobility time during the latter four minutes compared with that of the model group (forced-swimming mice): significantly different
AUC(0-t) ([1]; brain tissue): 8680 ng·h/mL
AUC(0-inf) ([1]; brain tissue): 12500 ng·h/mL
half-life ([1]; brain tissue): 280 min
MRT ([1]; brain tissue): 6.73 h
Tmax ([1]; brain tissue): 1 h
Cmax ([1]; brain tissue): 1970 ng/mL
AUC(0-t) ([1]; plasma): 7790 ng·h/mL
AUC(0-inf) ([1]; plasma): 8000 ng·h/mL
half-life ([1]; plasma): 87 min
MRT ([1]; plasma): 2.97 h
Tmax ([1]; plasma): 1 h
Cmax ([1]; plasma): 2090 ng/mL
